Inhibition in vivo data for 57 compounds are collected here from patent US4393225A, “AI-77 Compounds and pharmaceutically acceptable salts thereof” (Asahi Kasei Kogyo Kabushiki Kaisha, priority 1979, dated 1983).

One test has as its system ulcer. Nature of the test: Anti-ulcer test (restraint and water immersion ulcer in rats, i.p.). The class given is in vivo, Male Wistar rats. The note with it: Rattus norvegicus, ip, read-out: % Inhibition of Ulcer. How it is done: The anti-ulcer and anti-edema activity of the compounds was evaluated in efficacy tests described below.
Male Wistar rats weighing about 150 g on average were not fed for 24 hours before the test. Then a solution or suspension of a predetermined concentration of the test compound in physiological saline was administered to them intraperitoneally. One hour after the administration,each rat was restrained in a net cage and submerged in a water both (21° C.) from the tail to xiphistrenun for 6 hours. Test animals were then killed (by dislocation of the cervical vertebrae), the stomach was removed and incised along the curvatura ventriculi major, and the inside wall of the stomach was pathologically examined under microscopic observation. Rats in which the occurrence of an ulceration was substantially not observed were rated O, while others were rated 0.5, 1, 2 or 3, depending on the severity of the ulcer development. The percent inhibition of ulcer was calculated by the following formula: [formula]
On to `CC(C)CC(NC(=O)C(O)C1OC(=O)CC1NCCCCBr)C1Cc2cccc(O)c2C(=O)O1` (stereo not drawn) [IIIa-18-26], for which the inhibition in vivo at 50 mg/kg worked out at 94%.

As to `CCNC(CC(N)=O)C(O)C(OC)C(=O)NC(CC(C)C)C1Cc2cccc(OCC)c2C(=O)O1` (stereo not drawn) [VII-16-1], the inhibition in vivo at 25 mg/kg stood at 56%.

As for `CCCCNC(CC(N)=O)C(O)C(OC(=O)CCC)C(=O)NC(CC(C)C)C1Cc2cccc(O)c2C(=O)O1` (stereo not drawn) [VII-11-3], the inhibition in vivo at 25 mg/kg is 66%.

Still in this test, the particulars now being: Rattus norvegicus, ip; 25 mg/kg i.p.; read-out: % Inhibition of Ulcer.
Consider `CC(=O)NC(CC(N)=O)C(O)C(O)C(=O)NC(CC(C)C)C1Cc2cccc(OC(C)=O)c2C(=O)O1` (stereo not drawn) [VII-31-1], for which the inhibition in vivo at 25 mg/kg was determined as 89%.

On to `CCOc1cccc2c1C(=O)OC(C(CC(C)C)NC(=O)C(O)C(O)C(N)CC(=O)Nc1ccc(C)cc1)C2` (stereo not drawn) [VII-5-4], for which the inhibition in vivo at 25 mg/kg came out at 78%.

As for `CCCCCCCCC=CCCCCCCCCNC(=O)CC(N)C(O)C(O)C(=O)NC(CC(C)C)C1Cc2cccc(O)c2C(=O)O1` (stereo not drawn) [VII-1-8], the inhibition in vivo at 25 mg/kg worked out at 89%.

Regarding `CNC(CC(N)=O)C(O)C(OC(C)=O)C(=O)NC(CC(C)C)C1Cc2cccc(OC(C)=O)c2C(=O)O1` (stereo not drawn) [VII-21-1], the inhibition in vivo at 25 mg/kg is 66%.

For the compound `CC(C)CC(NC(=O)C(O)C(O)C(N)CC(=O)NCc1ccc2ccccc2c1)C1Cc2cccc(O)c2C(=O)O1` (stereo not drawn) [VII-1-18], the inhibition in vivo at 25 mg/kg came out at 78%.

Consider `CCCCOc1cccc2c1C(=O)OC(C(CC(C)C)NC(=O)C(OCCCC)C(O)C(CC(N)=O)NC)C2` (stereo not drawn) [VII-25-3], for which the inhibition in vivo at 25 mg/kg is 56%.

Regarding `CCCCCCCCCCCCCCCCCCNC(=O)CC(N)C(O)C(O)C(=O)NC(CC(C)C)C1Cc2cccc(O)c2C(=O)O1` (stereo not drawn) [VII-1-6], the inhibition in vivo at 25 mg/kg worked out at 89%.

With `CC(C)CC(NC(=O)C(O)C(O)C(N)CC(=O)NCC1CCCO1)C1Cc2cccc(O)c2C(=O)O1` (stereo not drawn) [VII-1-15], the inhibition in vivo at 25 mg/kg is 89%.

Consider `CCCCNC(=O)CC(N)C(O)C(O)C(=O)NC(CC(C)C)C1Cc2cccc(OCC)c2C(=O)O1` (stereo not drawn) [VII-5-3], for which the inhibition in vivo at 25 mg/kg turned out to be 78%.

Regarding `CCNC(=O)CC(N)C(O)C(O)C(=O)NC(CC(C)C)C1Cc2cccc(O)c2C(=O)O1` (stereo not drawn) [VII-1-3], the inhibition in vivo at 25 mg/kg amounted to 100%.

Regarding `COc1ccc(CNC(=O)CC(N)C(O)C(O)C(=O)NC(CC(C)C)C2Cc3cccc(O)c3C(=O)O2)cc1` (stereo not drawn) [VII-1-24], the inhibition in vivo at 25 mg/kg was determined as 83%.

For the compound `CNC(CC(N)=O)C(O)C(OC(=O)CC(C)C)C(=O)NC(CC(C)C)C1Cc2cccc(O)c2C(=O)O1` (stereo not drawn) [VII-20-2], the inhibition in vivo at 25 mg/kg turned out to be 66%.

Staying with this test, now noted: Rattus norvegicus, ip; 50 mg/kg i.p.; read-out: % Inhibition of Ulcer.
With `CCCCN=C(NC(CC(C)C)C1Cc2cccc(O)c2C(=O)O1)C(O)C(O)C(CC(=O)O)NCCCC` (stereo not drawn) [Vb-10-3], the inhibition in vivo at 50 mg/kg is 89%.

Regarding `CC(C)CC(NC(=O)C(O)C1OC(=O)CC1NCC(Cl)(Cl)Cl)C1Cc2cccc(O)c2C(=O)O1` (stereo not drawn) [IIIa-18-12], the inhibition in vivo at 50 mg/kg came out at 94%.

With `CCOc1cccc2c1C(=O)OC(C(CC(C)C)NC(=O)C(OCC)C1OC(=O)CC1NC(=O)CC(C)C)C2` (stereo not drawn) [IIIa-7-3], the inhibition in vivo at 50 mg/kg was found to be 33%.

For the compound `CCCC(=O)NC1CC(=O)OC1C(OC(C)C)C(=O)NC(CC(C)C)C1Cc2cccc(OCC3CCCCC3)c2C(=O)O1` (stereo not drawn) [IIIa-7-12], the inhibition in vivo at 50 mg/kg is 33%.

In the case of `CCCCCCCCCCCCCCCCCCOc1cccc2c1C(=O)OC(C(CC(C)C)NC(=O)C(O)C1C=CC(=O)O1)C2` (stereo not drawn) [IVa-4-5], the inhibition in vivo at 50 mg/kg worked out at 33%.

Regarding `CC(C)CC(NC(=O)C(O)C1OC(=O)CC1N)C1Cc2cccc(OCc3ccco3)c2C(=O)O1` (stereo not drawn) [IIIa-13-13], the inhibition in vivo at 50 mg/kg stood at 89%.

Regarding `CC(=O)Oc1cccc2c1C(=O)OC(C(CC(C)C)NC(=O)C(OC(C)=O)C1OC(=O)CC1NC(=O)c1ccc(C)cc1)C2` (stereo not drawn) [IIIa-3-8], the inhibition in vivo at 50 mg/kg turned out to be 33%.

As to `CCCCCCCCCCCCCCCCCC(=O)OC(C(=O)NC(CC(C)C)C1Cc2cccc(O)c2C(=O)O1)C1C=CC(=O)O1` (stereo not drawn) [IVa-1-11], the inhibition in vivo at 50 mg/kg came out at 33%.

With `CCCCCCCCCCCCCCCCCCNC1CC(=O)OC1C(OC(C)=O)C(=O)NC(CC(C)C)C1Cc2cccc(O)c2C(=O)O1` (stereo not drawn) [IIIa-19-3], the inhibition in vivo at 50 mg/kg was 56%.

Regarding `Cc1ccc(C(=O)Oc2cccc3c2C(=O)OC(C(CC(C)C)NC(=O)C(O)C2OC(=O)CC2N)C3)cc1` (stereo not drawn) [IIIa-12-7], the inhibition in vivo at 50 mg/kg came out at 78%.

For the compound `CCOc1cccc2c1C(=O)OC(C(CC(C)C)NC(=O)C(OC(=O)C(C)C)C1OC(=O)CC1N)C2` (stereo not drawn) [IIIa-14-2], the inhibition in vivo at 50 mg/kg worked out at 56%.

As to `CC(C)=CC(=O)NC1CC(=O)OC1C(O)C(=O)NC(CC(C)C)C1Cc2cccc(O)c2C(=O)O1` (stereo not drawn) [IIIa-1-81], the inhibition in vivo at 50 mg/kg was 66%.

Turning to `CCCCCC(=O)Oc1cccc2c1C(=O)OC(C(CC(C)C)NC(=O)C(O)C1C=CC(=O)O1)C2` (stereo not drawn) [IVa-3-5], the inhibition in vivo at 50 mg/kg was 33%.

As for `CC(C)CC(NC(=O)C(O)C(O)C=CC(=O)NCC1CCCCC1)C1Cc2cccc(O)c2C(=O)O1` (stereo not drawn) [VIII-1-5], the inhibition in vivo at 50 mg/kg came to 44%.

Regarding `CSc1ccc(C(=O)NC2CC(=O)OC2C(O)C(=O)NC(CC(C)C)C2Cc3cccc(O)c3C(=O)O2)cc1` (stereo not drawn) [IIIa-1-46], the inhibition in vivo at 50 mg/kg was 66%.

Regarding `CSCCNC1CC(=O)OC1C(O)C(=O)NC(CC(C)C)C1Cc2cccc(O)c2C(=O)O1` (stereo not drawn) [IIIa-18-38], the inhibition in vivo at 50 mg/kg is 94%.

On to `CCOc1cccc2c1C(=O)OC(C(CC(C)C)NC(=O)C(OC(C)=O)C1OC(=O)CC1NC(=O)CC(C)C)C2` (stereo not drawn) [IIIa-6-3], for which the inhibition in vivo at 50 mg/kg was found to be 33%.

Regarding `CC(C)=CCC/C(C)=C/CC/C(C)=C/CCC(=O)NC1CC(=O)OC1C(O)C(=O)NC(CC(C)C)C1Cc2cccc(O)c2C(=O)O1` (stereo not drawn) [IIIa-1-67], the inhibition in vivo at 50 mg/kg came out at 66%.

Turning to `CCOc1cccc2c1C(=O)OC(C(CC(C)C)NC(=O)C(OC(=O)C(C)C)C1OC(=O)CC1NC)C2` (stereo not drawn) [IIIa-32-2], the inhibition in vivo at 50 mg/kg was 44%.

With `CC(C)CC(NC(=O)C(O)C1OC(=O)CC1NC(=O)c1ccco1)C1Cc2cccc(O)c2C(=O)O1` (stereo not drawn) [IIIa-1-22], the inhibition in vivo at 50 mg/kg is 66%.

Take `CCCCOc1cccc2c1C(=O)OC(C(CC(C)C)NC(=O)C(OC)C1OC(=O)CC1NC(C)=O)C2` (stereo not drawn) [IIIa-7-16]: the inhibition in vivo at 50 mg/kg was determined as 33%.

As for `CCCCCCCCCCCCCCCCCCOC(C(=O)NC(CC(C)C)C1Cc2cccc(O)c2C(=O)O1)C1OC(=O)CC1N` (stereo not drawn) [IIIa-16-3], the inhibition in vivo at 50 mg/kg amounted to 56%.

With `CCCCOc1cccc2c1C(=O)OC(C(CC(C)C)NC(=O)C(O)C1OC(=O)CC1NC(C)=O)C2` (stereo not drawn) [IIIa-5-3], the inhibition in vivo at 50 mg/kg came to 44%.

For the compound `CC(C)CC(=O)OC(C(=O)NC(CC(C)C)C1Cc2cccc(O)c2C(=O)O1)C1C=CC(=O)O1` (stereo not drawn) [IVa-1-5], the inhibition in vivo at 50 mg/kg worked out at 44%.

For `CCOc1cccc2c1C(=O)OC(C(CC(C)C)NC(=O)C(O)C1OC(=O)CC1NC(=O)Cc1ccc(C)cc1)C2` (stereo not drawn) [IIIa-5-63], the inhibition in vivo at 50 mg/kg was 33%.

With `CC(C)CC(NC(=O)C(O)C1OC(=O)CC1N)C1Cc2cccc(OC(=O)C3CCCO3)c2C(=O)O1` (stereo not drawn) [IIIa-12-5], the inhibition in vivo at 50 mg/kg stood at 78%.

Take `CCCCCCCCCCCC(=O)OC(C(=O)NC(CC(C)C)C1Cc2cccc(O)c2C(=O)O1)C1C=CC(=O)O1` (stereo not drawn) [IVa-1-10]: the inhibition in vivo at 50 mg/kg amounted to 33%.

For the compound `Cc1ccc(COc2cccc3c2C(=O)OC(C(CC(C)C)NC(=O)C(O)C2OC(=O)CC2N)C3)cc1` (stereo not drawn) [IIIa-13-21], the inhibition in vivo at 50 mg/kg is 89%.

As to `CC(C)CC(NC(=O)C(O)C1OC(=O)CC1NC(=O)c1cocc1C(=O)O)C1Cc2cccc(O)c2C(=O)O1` (stereo not drawn) [IIIa-1-60], the inhibition in vivo at 50 mg/kg was 66%.

As to `CC(C)CC(NC(=O)C(O)C1OC(=O)CC1N)C1Cc2cccc(OCCc3ccc4ccccc4c3)c2C(=O)O1` (stereo not drawn) [IIIa-13-18], the inhibition in vivo at 50 mg/kg turned out to be 72%.

`CCOc1cccc2c1C(=O)OC(C(CC(C)C)NC(=O)C(O)C1OC(=O)CC1NC(=O)C1CCCCCCC1)C2` (stereo not drawn) [IIIa-5-60]: the inhibition in vivo at 50 mg/kg came to 44%.

Turning to `CC(C)CC(NC(=O)C(O)C1OC(=O)CC1NC(=O)Cc1ccc2ccccc2c1)C1Cc2cccc(O)c2C(=O)O1` (stereo not drawn) [IIIa-1-64], the inhibition in vivo at 50 mg/kg is 56%.

Regarding `CC(C)CC(NC(=O)C(O)C1C=CC(=O)O1)C1Cc2cccc(OCCCBr)c2C(=O)O1` (stereo not drawn) [IVa-4-19], the inhibition in vivo at 50 mg/kg came to 44%.

With `CCOc1cccc2c1C(=O)OC(C(CC(C)C)NC(=O)C(O)C1OC(=O)CC1NC(=O)CCCBr)C2` (stereo not drawn) [IIIa-5-31], the inhibition in vivo at 50 mg/kg came to 44%.

In the case of `CC(C)CC(NC(=O)C(O)C(O)C=CC(=O)NCc1cccc(Cl)c1)C1Cc2cccc(O)c2C(=O)O1` (stereo not drawn) [VIII-1-4], the inhibition in vivo at 50 mg/kg was 44%.

Take `CNC(CC(=O)O)C(O)C(OC)C(=N)NC(CC(C)C)C1Cc2cccc(OC(C)=O)c2C(=O)O1` (stereo not drawn) [Vb-27-1]: the inhibition in vivo at 50 mg/kg is 66%.

As for `CCCCCCCC(=O)OC(C(=O)NC(CC(C)C)C1Cc2cccc(O)c2C(=O)O1)C1C=CC(=O)O1` (stereo not drawn) [IVa-1-9], the inhibition in vivo at 50 mg/kg worked out at 33%.

For the compound `CCOc1cccc2c1C(=O)OC(C(CC(C)C)NC(=O)C(O)C1OC(=O)CC1NC(=O)CCCCCCCCCO)C2` (stereo not drawn) [IIIa-5-75], the inhibition in vivo at 50 mg/kg was 33%.

For the compound `CCCCCCCCOc1cccc2c1C(=O)OC(C(CC(C)C)NC(=O)C(O)C1OC(=O)CC1NCC)C2` (stereo not drawn) [IIIa-22-11], the inhibition in vivo at 50 mg/kg was 83%.

Turning to `CCCCCCCCC=CCCCCCCCC(=O)NC1CC(=O)OC1C(OC(C)=O)C(=O)NC(CC(C)C)C1Cc2cccc(OCC)c2C(=O)O1` (stereo not drawn) [IIIa-6-5], the inhibition in vivo at 50 mg/kg stood at 22%.

For the compound `CCCCCCCCOc1cccc2c1C(=O)OC(C(CC(C)C)NC(=O)C(O)C1OC(=O)CC1NC(C)=O)C2` (stereo not drawn) [IIIa-5-11], the inhibition in vivo at 50 mg/kg is 44%.

Consider `CCOc1cccc2c1C(=O)OC(C(CC(C)C)NC(=O)C(OC(=O)C(Cl)(Cl)Cl)C1OC(=O)CC1NC(=O)C(Cl)(Cl)Cl)C2` (stereo not drawn) [IIIa-6-1], for which the inhibition in vivo at 50 mg/kg was 33%.
